Assays:
[1] = Crystal; DTA
[2] = molar enthalpy of vaporization or sublimation; conditions: 381.12 K; Liquid; Static calorimetry
[3] = molar heat capacity at constant pressure; conditions: 101.33 kPa, Small sample (50 mg) DSC
[4] = Molar enthalpy of transition or fusion; conditions: Crystal; DSC

CCCCCCC(=O)c1ccc(O)cc1 [1-(4-hydroxyphenyl)-1-heptanone]
Conditions	Molar enthalpy of transition or fusion [kcal/mol]	Normal melting temperature [°C]	molar enthalpy [kcal/mol]
[1]	–	92	–
[2]	–	–	24.2
[4]	7.5	–	–

[3]
Conditions	molar heat capacity at constant pressure [J/K/mol]
288.67 K, Crystal	291
289.17 K, Crystal	292.2
289.67 K, Crystal	289.9
290.17 K, Crystal	290.9
290.68 K, Crystal	292.7
291.18 K, Crystal	295
291.68 K, Crystal	296.8
292.18 K, Crystal	295.6
292.69 K, Crystal	295.3
293.19 K, Crystal	296.8
293.69 K, Crystal	295
294.19 K, Crystal	297.4
294.69 K, Crystal	297.4
295.19 K, Crystal	296.8
295.69 K, Crystal	301
296.19 K, Crystal	302.3
296.7 K, Crystal	300.1
297.2 K, Crystal	300.6
297.7 K, Crystal	300.7
298.2 K, Crystal	300.2
298.7 K, Crystal	303
299.2 K, Crystal	302.5
299.7 K, Crystal	304.8
300.2 K, Crystal	307.5
300.7 K, Crystal	306.2
301.2 K, Crystal	305.9
301.7 K, Crystal	306.8
302.2 K, Crystal	306.5
302.7 K, Crystal	307.3
303.2 K, Crystal	308.7
303.7 K, Crystal	307.9
304.2 K, Crystal	309.2
304.7 K, Crystal	311.7
305.2 K, Crystal	310
305.7 K, Crystal	309.6
306.2 K, Crystal	311.9
306.7 K, Crystal	312.9
307.2 K, Crystal	311.4
307.7 K, Crystal	311.2
308.2 K, Crystal	310.6
308.7 K, Crystal	313.4
309.2 K, Crystal	314
309.7 K, Crystal	314.4
310.2 K, Crystal	315.8
310.7 K, Crystal	314.9
311.2 K, Crystal	316.7
311.7 K, Crystal	318
312.2 K, Crystal	317.3
312.7 K, Crystal	318.1
313.2 K, Crystal	319.2
313.7 K, Crystal	320.9
314.2 K, Crystal	320.5
314.7 K, Crystal	319.8
315.2 K, Crystal	319.7
315.7 K, Crystal	323.3
316.2 K, Crystal	322.8
316.7 K, Crystal	323.2
317.2 K, Crystal	324
317.7 K, Crystal	323.8
318.2 K, Crystal	325.7
318.7 K, Crystal	324.1
319.2 K, Crystal	327.1
319.7 K, Crystal	327.1
320.2 K, Crystal	324.7
320.7 K, Crystal	327.1
321.2 K, Crystal	328.9
321.7 K, Crystal	328.9
322.2 K, Crystal	330.3
322.7 K, Crystal	329.6
323.2 K, Crystal	331.2
323.7 K, Crystal	332
324.2 K, Crystal	330.5
324.7 K, Crystal	331.9
325.2 K, Crystal	333.5
325.7 K, Crystal	333.6
326.2 K, Crystal	334.4
326.7 K, Crystal	335
327.2 K, Crystal	335.2
327.7 K, Crystal	334.1
328.2 K, Crystal	335
328.7 K, Crystal	337.4
329.2 K, Crystal	336.3
329.7 K, Crystal	338.1
330.2 K, Crystal	338.7
330.7 K, Crystal	337.8
331.2 K, Crystal	338.5
331.7 K, Crystal	339.5
332.2 K, Crystal	340.3
332.7 K, Crystal	342.3
333.2 K, Crystal	341.3
333.7 K, Crystal	342.1
334.2 K, Crystal	343.3
334.7 K, Crystal	343.6
335.2 K, Crystal	343.9
335.7 K, Crystal	346.5
336.2 K, Crystal	344.9
336.7 K, Crystal	346.6
337.2 K, Crystal	346.4
337.7 K, Crystal	346.9
338.2 K, Crystal	349.4
338.7 K, Crystal	347.8
339.19 K, Crystal	348.2
339.69 K, Crystal	348.7
340.2 K, Crystal	350.4
340.7 K, Crystal	352.5
341.2 K, Crystal	350.7
341.7 K, Crystal	350.7
342.2 K, Crystal	351.4
342.7 K, Crystal	351.7
343.19 K, Crystal	353.4
343.69 K, Crystal	353.1
344.19 K, Crystal	353.4
344.69 K, Crystal	356.8
345.19 K, Crystal	357
345.69 K, Crystal	355.2
346.19 K, Crystal	357.3
346.69 K, Crystal	357.3
347.19 K, Crystal	358.3
347.69 K, Crystal	359.2
348.19 K, Crystal	360.3
348.69 K, Crystal	361.6
349.19 K, Crystal	362.4
349.69 K, Crystal	360.9
350.19 K, Crystal	361.8
350.69 K, Crystal	363.3
351.19 K, Crystal	364.3
351.69 K, Crystal	363.9
352.19 K, Crystal	363.4
352.69 K, Crystal	366
353.19 K, Crystal	365.4
353.69 K, Crystal	368.2
354.19 K, Crystal	369.3
354.69 K, Crystal	370
355.19 K, Crystal	372.4
355.69 K, Crystal	375.2
356.19 K, Crystal	373.6
356.69 K, Crystal	374.5
357.19 K, Crystal	374.8
357.69 K, Crystal	380
358.19 K, Crystal	380.1
358.69 K, Crystal	381.4
359.19 K, Crystal	382.3
359.69 K, Crystal	387
360.19 K, Crystal	391.3
360.69 K, Crystal	393.9
361.19 K, Crystal	397.9
361.69 K, Crystal	403.5
362.19 K, Crystal	413.1
362.69 K, Crystal	424.4
363.19 K, Crystal	446.7
370.2 K, Liquid	458.6
370.7 K, Liquid	460.1
371.19 K, Liquid	461.4
371.69 K, Liquid	461.5
372.19 K, Liquid	463.4
372.69 K, Liquid	462.1
373.19 K, Liquid	464.1
373.69 K, Liquid	465.7
374.19 K, Liquid	465.5
374.69 K, Liquid	467.4
375.19 K, Liquid	464.3
375.69 K, Liquid	466.6
376.19 K, Liquid	466.5
376.69 K, Liquid	466.6
377.19 K, Liquid	467.5
377.69 K, Liquid	468.1
378.19 K, Liquid	470.5
378.69 K, Liquid	469.8
379.19 K, Liquid	468.2
379.69 K, Liquid	471.2
380.19 K, Liquid	470
380.69 K, Liquid	474
381.19 K, Liquid	473.3
381.69 K, Liquid	474
382.19 K, Liquid	470.5
382.69 K, Liquid	473.3
383.19 K, Liquid	472.6
383.69 K, Liquid	473.7
384.19 K, Liquid	474.9
384.69 K, Liquid	477.4
385.19 K, Liquid	480
385.69 K, Liquid	481.1
386.19 K, Liquid	482.1
386.69 K, Liquid	479
